For experiment [1], the system named is MDA-MB-231, MIAPaCa-2 and PANC-1 cells. In words: Cell counting during cysteine starvation, starvation-sensitive cell lines. To be noted: medium without cysteine. In kind it is cell-based.
Experiment [2] has as its system SW480 and MDA-MB-231 cells. In words: Cell counting, rescue by cysteine precursors during cysteine starvation. In kind it is cell-based. The following applies: supplement at 0.8 mM. As to the method:
HCT116, SW480, MDA-MB-468, MDA-MB-231, AsPC-1, BxPC-3, CFPAC-1, MIAPaCa-2, PANC-1, Panc10.05, SW1990, U-251, LN-18, LN-229, T98G, U-343, A-172 cells were used. Cell lines were authenticated using Short Tandem Repeat (STR) profiling and tested for mycoplasma. Colorectal and breast cancer cell lines were grown in Dulbecco's Modified Eagle Medium (DMEM), pancreatic ductal adenocarcinoma (PDAC) cell lines were grown in Roswell Park Memorial institute (RPMI) 1640. All cell lines were supplemented with penicillin-streptomycin, amphotericin, 2 mM L-glutamine, and 10% fetal bovine serum (FBS). Cells were kept at 37° C. in 5% CO2 in a humidified cell culture incubator. A formulated medium lacking cysteine, cystine, methionine, and serine was used as a base for creating experimental media. The base medium formulation contained 0.2 mM L-histidine, 0.4 mM L-isoleucine, 0.4 mM L-leucine, 0.4 mM L-lysine, 0.2 mM L-phenylalanine, 0.4 mM L-threonine, 0.08 mM L-tryptophan, 0.4 mM L-valine, 0.2 mM L-arginine, 2 mM L-glutamine, 0.2 mM L-tyrosine, 0.4 mM L-alanine, 0.3 mM L-proline, 0.15 mM L-glutamic acid, 0.1 mM L-aspartic acid, 0.2 mM L-asparagine, and 0.4 mM glycine. The base medium was supplemented with 10% dialyzed FBS, penicillin-streptomycin, and amphotericin. To ensure an adequate supply of vitamin B6 (a crucial co-factor for de novo cysteine synthesis), base medium was supplemented with additional 20 μM vitamin B6. The control experimental medium was the base medium supplemented with 0.4 mM L-cysteine, 0.2 mM L-methionine, and 0.4 mM L-serine. The cysteine starvation (−Cys) experimental medium was base medium supplemented with 0.2 mM L-methionine and 0.4 mM L-serine.
Cells were seeded at 6×10^4 cells per well into 24-well plates (triplicate wells per condition) in the relevant complete medium and adhered for a full 24-hour period. A ‘time-0’ plate was included to record the starting cell number to calculate relative cell numbers. Cells were washed once with phosphate-buffered saline (PBS) before receiving experimental medium containing or lacking the specified amino acids, metabolites, or drugs. At the stated time-points the medium was removed, cells were fixed in a 4% formalin-PBS solution. Cells were then washed and stored in PBS before staining with 4′,6-diamidino-2-phenylindole (DAPI)-Triton™ X100-PBS solution for 1 hour, followed by storage in PBS at 4° C. until further analysis. DAPI-stained cell nuclei were detected via microscopy.
Homocysteine, cystathionine, glutathione, putrescine, spermine, spermidine, GPX4 inhibitor ML210, SMOX inhibitor MDL 72527, PAOX inhibitor diminazene aceturate, ferrostatin-1 and erastin were used. AMD1 inhibitor sardomozide/SAM486A, GPX4 inhibitor RSL3, and CSE inhibitor beta-cyano-L-alanine were used. […]

Consider `CSCC[C@H](N)C(=O)O` [methionine], for which the “sensitivity to cysteine starvation versus methionine concentration” value in experiment [1] (methionine 0 to 10 μM, 17 h and 41 h) is “remained sensitive to cysteine starvation down to 5 μM methionine”; in experiment [1] (methionine 10 μM-1000 μM, 20 h), “remained highly sensitive”. Also, in experiment [2], the “restoration of proliferation during cysteine starvation” value is “no rescue”.

Values taken from patent US12109184B2, “Personalized methods of treating cancer” (CANCER RESEARCH TECHNOLOGY LIMITED, priority 2020, dated 2024).
